ChEMBL document CHEMBL4842306, “Pentadecaibins I-V: 15-Residue Peptaibols Produced by a Marine-Derived Trichoderma sp. of the Harzianum Clade” (J Nat Prod, 2021)
Non-standard residues stand in square brackets, D forms with d. Residues, ends and D or L forms follow the SMILES beside them. Phe(ol) = N[C@H](CO)Cc1ccccc1; Aib = CC(C)(N)C(=O)O

Columns and labels:
Staphylococcus aureus = test: Antibacterial activity against Staphylococcus aureus CIP53.156 assessed as inhibition of microbial growth incubated for 24 hrs by spectrophotometry; type: functional
KB = test: Cytotoxicity against human KB cells assessed as cell viability after 72 hrs by MTT assay; type: functional, cell-based
Candida albicans = test: […] isolate Candida albicans assessed as inhibition of microbial growth incubated for 24 hrs by spectrophotometry; type: functional
Escherichia coli = test: Antibacterial activity against Escherichia coli CIP54.8T assessed as inhibition of microbial growth incubated for 24 hrs by spectrophotometry; type: functional

Row | Structure (SMILES) | MIC (Staphylococcus aureus) [µg/mL] | IC50 (KB) [nM] | MIC (Candida albicans) [µg/mL] | MIC (Escherichia coli) [µg/mL]
1 | CC[C@@](C)(NC(=O)[C@H](CCC(N)=O)NC(=O)C(C)(C)NC(=O)[C@H](CC(C)C)NC(=O)[C@H](C)NC(=O)CNC(=O)C(C)(C)NC(C)=O)C(=O)N[C@@H](CC(C)C)C(=O)NC(C)(C)C(=O)N[C@@H](C)C(=O)NC(C)(C)C(=O)NC(C)(C)C(=O)NC(C)(C)C(=O)N[C@@H](CCC(N)=O)C(=O)N[C@H](CO)Cc1ccccc1 | > 100 | 800 | > 100 | > 100
2 | CC[C@@](C)(NC(=O)[C@H](CCC(N)=O)NC(=O)C(C)(C)NC(=O)[C@H](CC(C)C)NC(=O)[C@H](C)NC(=O)CNC(=O)C(C)(C)NC(C)=O)C(=O)N[C@H](C(=O)NC(C)(C)C(=O)N[C@@H](C)C(=O)NC(C)(C)C(=O)NC(C)(C)C(=O)NC(C)(C)C(=O)N[C@@H](CCC(N)=O)C(=O)N[C@H](CO)Cc1ccccc1)C(C)C | 25 | 800 | > 100 | > 100
3 | CC(=O)NC(C)(C)C(=O)N1CCC[C@H]1C(=O)NC(C)(C)C(=O)N[C@@H](C)C(=O)NC(C)(C)C(=O)N[C@@H](C)C(=O)N[C@@H](CCC(N)=O)C(=O)NC(C)(C)C(=O)N[C@H](C(=O)NC(C)(C)C(=O)NCC(=O)N[C@@H](CC(C)C)C(=O)NC(C)(C)C(=O)N1CCC[C@H]1C(=O)N[C@H](C(=O)NC(C)(C)C(=O)NC(C)(C)C(=O)N[C@H](CCC(N)=O)C(=O)N[C@H](CCC(N)=O)C(=O)N[C@H](CO)Cc1ccccc1)C(C)C)C(C)C |  | 9000 |  | 
4 | CC[C@@](C)(NC(=O)[C@H](CC(C)C)NC(=O)[C@H](C)NC(=O)CNC(=O)C(C)(C)NC(C)=O)C(=O)N[C@@H](CCC(N)=O)C(=O)N[C@](C)(CC)C(=O)N[C@H](C(=O)NC(C)(C)C(=O)N[C@@H](C)C(=O)NC(C)(C)C(=O)NC(C)(C)C(=O)NC(C)(C)C(=O)N[C@@H](CCC(N)=O)C(=O)N[C@H](CO)Cc1ccccc1)C(C)C | 25 | 700 | > 100 | > 100
5 | CC(=O)NC(C)(C)C(=O)NCC(=O)N[C@@H](C)C(=O)N[C@@H](CC(C)C)C(=O)NC(C)(C)C(=O)N[C@@H](CCC(N)=O)C(=O)NC(C)(C)C(=O)N[C@@H](CC(C)C)C(=O)NC(C)(C)C(=O)N[C@@H](C)C(=O)NC(C)(C)C(=O)NC(C)(C)C(=O)NC(C)(C)C(=O)N[C@@H](CCC(N)=O)C(=O)N[C@H](CO)Cc1ccccc1 (Ac-[Aib]GAL[Aib]Q[Aib]L[Aib]A[Aib][Aib][Aib]Q[Phe(ol)]) | > 100 | 4300 | > 100 | > 100
6 | CC(=O)NC(C)(C)C(=O)NCC(=O)N[C@@H](C)C(=O)N[C@@H](CC(C)C)C(=O)NC(C)(C)C(=O)N[C@@H](CCC(N)=O)C(=O)NC(C)(C)C(=O)N[C@H](C(=O)NC(C)(C)C(=O)N[C@@H](C)C(=O)NC(C)(C)C(=O)NC(C)(C)C(=O)NC(C)(C)C(=O)N[C@@H](CCC(N)=O)C(=O)N[C@H](CO)Cc1ccccc1)C(C)C (Ac-[Aib]GAL[Aib]Q[Aib]V[Aib]A[Aib][Aib][Aib]Q[Phe(ol)]) | 25 | 2400 | > 100 | > 100
